One experiment deals with T1, MMP-3 (Stromelysin-1) (Homo sapiens, UniProt P08254).
T1 construct: The active MMP-3 was obtained by treatment of proMMP-3 with trypsin; endogenous in cells; host or cells: human rheumatoid synovial fibroblasts stimulated with macrophage-conditioned medium (secreted into the culture medium)
Briefly: Determination of inhibition constant (Ki) for MMP-3, fluorogenic substrate. Type of experiment: biochemical. The note with it: activated MMP-3, 37° C., pH 7.6. The procedure:
Aliquots of the activated MMP-3 were stored at −20° C.
The activated MMP-3 is assayed using a fluorogenic substrate, Mca-Pro-Leu-Gly-Leu-Dpa-Ala-Arg-NH2, Knight, C. […] The increase in fluorescence due to cleavage of Gly-Leu peptide bond by MMP-3 was monitored with Perkin-Elmer LS50B Fluorimeter (λex328 nm, λem393 nm, excitation slit 2.5, emission slit 10). Substrate and inhibitor stock solutions were made in DMF and 0.1% HCl-DMF, respectively. […] The enzyme (10 μL of 0.2 μM MMP-3 dilution in assay buffer) was added at the last to start the reaction. […] Under these conditions, the measured Ki,app is close to true Ki.
(§1) The Ki for a competitive inhibitor is calculated using: v0/vi=(1+[I]/Ki,app) and Ki=Ki,app/(1+[S]/KM), where v0 is the initial rate in the absence of inhibitor, vi is the initial rate in the presence of inhibitor at the concentration of [I], [S] is the substrate concentration, and Km is the Michaelis constant. If slow binding is observed (i.e. if the approach to the binding equilibrium is slow), the final steady-state rate rather than the initial rate is taken as vi.

The target of experiment [1] is T2, MMP-12 (macrophage metalloelastase) (Homo sapiens, UniProt P39900).
T2 construct: made in house
Briefly: Determination of inhibition constant (Ki) for MMP-12, fluorogenic substrate. The settings on record: 25C., pH 7.6. Type of experiment: biochemical. The procedure: as §1

In general, Ki refers to a measure of affinity in units of concentration, obtained from inhibition or displacement. Lower therefore signals tighter binding.

T1 sequence (P08254 100-477): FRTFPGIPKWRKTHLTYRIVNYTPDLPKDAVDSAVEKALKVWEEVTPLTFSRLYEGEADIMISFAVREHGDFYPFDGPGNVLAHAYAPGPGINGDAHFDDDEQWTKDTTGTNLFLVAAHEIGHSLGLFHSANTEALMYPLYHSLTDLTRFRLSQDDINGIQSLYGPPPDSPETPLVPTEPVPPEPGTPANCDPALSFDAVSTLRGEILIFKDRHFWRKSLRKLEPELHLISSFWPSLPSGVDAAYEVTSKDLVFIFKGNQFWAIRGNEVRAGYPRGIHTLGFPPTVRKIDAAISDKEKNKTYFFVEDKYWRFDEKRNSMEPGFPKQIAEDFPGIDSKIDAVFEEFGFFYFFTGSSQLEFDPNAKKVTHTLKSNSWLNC
T2 sequence (P39900 106-263 limits assumed): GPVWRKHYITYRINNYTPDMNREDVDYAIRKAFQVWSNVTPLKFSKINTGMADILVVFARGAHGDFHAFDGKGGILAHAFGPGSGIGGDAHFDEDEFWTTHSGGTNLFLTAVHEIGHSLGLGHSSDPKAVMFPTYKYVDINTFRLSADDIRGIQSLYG

With `CNC(=O)[C@H](Cc1ccccc1)N1CCN(Cc2ccccc2)C[C@H](NC(=O)[C@@H](S)CCCCN2C(=O)c3ccccc3C2=O)C1=O` (relative stereo) [IV-1, 2H-Isoindole-2-hexanamide, N-[hexahydro-4-[2-(methylamino)-2-oxo-1-(phenylmethyl)ethyl]-5-oxo-1-(phenylmethyl)-1H-1,4-diazepin-6-yl]-1,3-dihydro-α-mercapto-1,3-dioxo-, [6S-[4(R*), 6R*(R*)]]-], the Ki at MMP-3 (Stromelysin-1) was 0.21 µM. As to `CNC(=O)C(Cc1ccccc1)N1CCC(c2ccccc2)CC(NC(=O)C(S)CCCCN2C(=O)c3ccccc3C2=O)C1=O` (stereo not drawn) [III-1, 2H-Isoindole-2-hexanamide, N-[hexahydro-1-[2-(methylamino)-2-oxo-1-(phenylmethyl)ethyl]-2-oxo-5-phenyl-1H-azepin-3-yl]-1,3-dihydro-α-mercapto-1,3-dioxo-, [3S-[1(R*), 3α, 5β]]-], the results for the Ki (on MMP-3 (Stromelysin-1); in experiment [1]) were 0.073 µM and 0.053 µM, respectively.
